Values after ≈ are worked out from the molar mass of the structure shown. Active and inactive are the calls of the source. The rule behind the calls is not given here.
Experiments:
Staphylococcus aureus [1] = test: Bactericidal activity against Staphylococcus aureus ATCC 29213 assessed as reduction in bacterial growth at 8 microg/ml measured at 2 hrs by time-kill assay; type: functional, organism-based; conditions: dose 8.0 µg/ml
[2] = test system: Staphylococcus epidermidis; test: Antibacterial activity against Staphylococcus epidermidis ATCC 14990 assessed as inhibition of bacterial growth incubated for 24 hrs by Mueller-Hinton broth based assay; type: functional
Staphylococcus aureus [3] = test: Bactericidal activity against Staphylococcus aureus ATCC 29213 assessed as reduction in bacterial growth at 8 times MIC measured at 8 hrs by time-kill assay; type: functional
Staphylococcus aureus [4] = test: Antimicrobial activity against Staphylococcus aureus ATCC 29213 assessed as reduction in bacterial growth incubated for 24 hrs by Mueller-Hinton broth based assay; type: functional
Enterococcus faecalis [5] = test: Antibacterial activity against Enterococcus faecalis ATCC 29212 assessed as reduction in bacterial growth incubated for 24 hrs by Mueller-Hinton broth based assay; type: functional
Bacillus subtilis [6] = test: Antibacterial activity against Bacillus subtilis ATCC 6633 assessed as reduction in bacterial growth incubated for 24 hrs by Mueller-Hinton broth based assay; type: functional
Cell membrane [7] = test: Induction of cell membrane disruption in Staphylococcus aureus ATCC 29213 assessed as appearance of uneven cell at 8 microg/ml incubated for 2 hrs by scanning electron microscopic analysis; type: subcellular; conditions: dose 8.0 µg/ml
Cell membrane [8] = test: Induction of cell membrane disruption in Staphylococcus aureus ATCC 29213 assessed as appearance of ruptured cell at 8 microg/ml incubated for 2 hrs by scanning electron microscopic analysis; type: subcellular; conditions: dose 8.0 µg/ml
Staphylococcus aureus [9] = test: Potency index, ratio of chloramphenicol MIC to test compound MIC for antimicrobial activity against Staphylococcus aureus ATCC 29213 assessed as reduction in bacterial growth incubated for 24 hrs by Mueller-Hinton broth based assay; type: functional
Cell membrane [10] = test: Disruption of membrane integrity in Staphylococcus aureus ATCC 29213 assessed as increase in green fluorescence at 8 microg/ml incubated for 2 hrs by nuc-green dye based fluorescence microscopic analysis; type: subcellular; conditions: dose 8.0 µg/ml
Cell membrane [11] = test: Induction of cell membrane disruption in Staphylococcus aureus ATCC 29213 assessed as appearance of round cell at 8 microg/ml incubated for 2 hrs by scanning electron microscopic analysis; type: subcellular; conditions: dose 8.0 µg/ml
[12] = test system: Staphylococcus epidermidis; test: Potency index, ratio of chloramphenicol MIC to test compound MIC for antibacterial activity against Staphylococcus epidermidis ATCC 14990 assessed as inhibition of bacterial growth incubated for 24 hrs by Mueller-Hinton broth based assay; type: functional
Enterococcus faecalis [13] = test: Potency index, ratio of chloramphenicol MIC to test compound MIC for antibacterial activity against Enterococcus faecalis ATCC 29212 assessed as reduction in bacterial growth incubated for 24 hrs by Mueller-Hinton broth based assay; type: functional
Bacillus subtilis [14] = test: Potency index, ratio of chloramphenicol MIC to test compound MIC for antibacterial activity against Bacillus subtilis ATCC 6633 assessed as reduction in bacterial growth incubated for 24 hrs by Mueller-Hinton broth based assay; type: functional
Cell membrane [15] = test: Induction of cell membrane disruption in Staphylococcus aureus ATCC 29213 assessed as increase in fluorescence intensity at 8 microg/ml incubated for 2 hrs by scanning electron microscopic analysis; type: subcellular; conditions: dose 8.0 µg/ml
Staphylococcus aureus [16] = test: Antibacterial activity against methicillin resistant-Staphylococcus aureus […] assessed as inhibition of bacterial growth incubated for 18 hrs by CLSI based microdilution method; type: functional
Staphylococcus aureus [17] = test: Bactericidal activity against Staphylococcus aureus ATCC 29213 assessed as reduction in bacterial growth at 0.5 to 8 times MIC measured at 24 hrs by time-kill assay; type: functional, organism-based
Cell membrane [18] = test: Disruption of membrane integrity in Staphylococcus aureus ATCC 29213 assessed as increase in red fluorescence at 8 microg/ml incubated for 2 hrs by EthD-III dye based fluorescence microscopic analysis; type: subcellular; conditions: dose 8.0 µg/ml
Cell membrane [19] = test: Induction of cell membrane disruption in Staphylococcus aureus ATCC 29213 assessed as appearance of wrinkled cell at 8 microg/ml incubated for 2 hrs by scanning electron microscopic analysis; type: subcellular; conditions: dose 8.0 µg/ml
Staphylococcus aureus [20] = test: Bactericidal activity against Staphylococcus aureus ATCC 29213 assessed as inhibition of bacterial growth measured at 8 hrs by time-kill assay; type: functional, organism-based
Staphylococcus aureus [21] = test: Antibacterial activity against Staphylococcus aureus ATCC 29213 assessed as inhibition of bacterial growth incubated for 18 hrs by CLSI based microdilution method; type: functional
Staphylococcus aureus [22] = test: Bactericidal activity against Staphylococcus aureus ATCC 29213 assessed as reduction in bacterial growth at 8 microg/ml measured immediately by time-kill assay; type: functional, organism-based; conditions: dose 8.0 µg/ml

Structure (SMILES) | MIC [2] | Activity (Staphylococcus aureus [3]) | MIC (Staphylococcus aureus [4]) | MIC (Enterococcus faecalis [5]) | MIC (Bacillus subtilis [6]) | MIC (Staphylococcus aureus [16]) | MIC (Staphylococcus aureus [21]) | also measured
CC1(C)S[C@@H]2[C@H](NC(=O)[C@H](N)c3ccccc3)C(=O)N2[C@H]1C(=O)O [AMPICILLIN] | 16 µg/mL (≈ 45.8 µM) | 5 log10CFU/ml | 0.5 µg/mL (≈ 1.43 µM) | 0.5 µg/mL (≈ 1.43 µM) | 8 µg/mL (≈ 22.9 µM) | – | – | Activity (Staphylococcus aureus [1]): inactive
O=C(N[C@H](CO)[C@H](O)c1ccc([N+](=O)[O-])cc1)C(Cl)Cl [CHLORAMPHENICOL] | 8 µg/mL (≈ 24.8 µM) | – | 16 µg/mL (≈ 49.5 µM) | 8 µg/mL (≈ 24.8 µM) | 8 µg/mL (≈ 24.8 µM) | – | – | –
CC(C)=CCc1c(-c2ccc3c(c2O)C=CC(C)(C)O3)oc2cc(O)cc(O)c2c1=O | 1 µg/mL (≈ 2.38 µM) | 2 log10CFU/ml | 1 µg/mL (≈ 2.38 µM) | 1 µg/mL (≈ 2.38 µM) | 1 µg/mL (≈ 2.38 µM) | 4 µg/mL (≈ 9.51 µM) | 4 µg/mL (≈ 9.51 µM) | Activity (Cell membrane [7]): Active; Activity (Cell membrane [8]): Active; Ratio (Staphylococcus aureus [9]): 8; Activity (Cell membrane [10]): Active; Activity (Cell membrane [11]): Active; Ratio [12]: 8; Ratio (Enterococcus faecalis [13]): 8; Ratio (Bacillus subtilis [14]): 8; Activity (Cell membrane [15]): Active; Activity (Staphylococcus aureus [17]): inactive; Activity (Cell membrane [18]): Active; Activity (Cell membrane [19]): Active; Activity (Staphylococcus aureus [20]): Dose-Dependent Effect; Activity (Staphylococcus aureus [22]): Active
CC(C)=CCc1c(-c2ccc(O)c3c2OC(C)(C)C=C3)oc2cc(O)cc(O)c2c1=O [KUWANON A] | 2 µg/mL (≈ 4.76 µM) | – | 4 µg/mL (≈ 9.51 µM) | 8 µg/mL (≈ 19 µM) | 4 µg/mL (≈ 9.51 µM) | 8 µg/mL (≈ 19 µM) | 8 µg/mL (≈ 19 µM) | –
